Laboratory results: ChEMBL document CHEMBL1201862, “PubChem BioAssay data set” (2004)
Active and inactive are the calls of the source.

Assays:
[1] = tested on: HeLa; experiment: HeLa cell cytotoxicity, dose response, cytotoxicity control for MITF activator project, CellTiter-Glo luminescence, cherry-pick samples (AID 540259); format: functional, cell-based; conditions: Homo sapiens
[2] = molecular target: Beta-2 adrenergic receptor (Homo sapiens, UniProt P07550); experiment: beta2AR agonists driving receptor internalization, dose response, cell-based, FAP fluorogen, flow cytometry, cherry pick 1 (AID 588763); format: functional
[3] = tested on: Vero; experiment: cells; format: functional; conditions: Chlorocebus sabaeus
[4] = tested on: Vero; experiment: cells; format: functional, cell-based; conditions: Chlorocebus sabaeus
[5] = Luminescence Cell-Based Dose Response HTS to Identify Activators of Luciferase Translation or Activity in H4 […] Cells. [Related pubchem assays: 1829 (Project Summary), 1814 (Primary HTS)]; format: functional
[6] = Luminescence Cell-Based Dose Confirmation HTS to Identify Activators of 5'UTR Stem-Loop Driven Alpha-Synuclein mRNA Translation in H4 Neuroglioblastoma Cells. [Related pubchem assays: 1829 (Project Summary), 1814 (Primary HTS)]; format: functional
[7] = tested on: H4; experiment: Luminescence Cell-Based Dose Response HTS to Identify Activators of 5'UTR Stem-Loop Driven Prion Protein mRNA Translation in H4 Neuroglioblastoma Cells. [Related pubchem assays: 1829 (Project Summary), 1814 (Primary HTS)]; format: functional; conditions: Homo sapiens
[8] = molecular target: Glucose-6-phosphate 1-dehydrogenase (Homo sapiens, UniProt P11413); experiment: human G6PD enzyme inhibitors, dose response, selectivity assay for P. falciparum G6PD inhibitor project, biochemical, fluorescence (AID 504792); format: functional
[9] = Luminescence Cell-Based Dose Response HTS to Identify Inhibitors of 5'UTR Stem-Loop Driven Prion Protein mRNA Translation in H4 Neuroglioblastoma Cells. [Related pubchem assays: 1827 (Project Summary), 1813 (Primary HTS)]; format: functional
[10] = inhibitors of firefly luciferase expression or activity, dose response, H4 neuroglioma cells, luminescence (AID 1990); format: functional, cell-based
[11] = cytotoxicity toward DRD oncogenic fibroblasts, dose response, cell-based, non-viral oncogenic, luminescence (AID 1934); format: functional; conditions: Homo sapiens
[12] = tested on: BJ; experiment: cells; format: functional, cell-based; conditions: Homo sapiens
[13] = tested on: BJ; experiment: cytotoxicity toward BJ-TERT fibroblasts, dose response, cell-based, RAS-independent, luminescence (AID 1933); format: functional; conditions: Homo sapiens
[14] = tested on: BJ; experiment: cytotoxicity toward BJ-TERT-LT-ST fibroblasts, dose response, cell-based, RAS-independent, luminescence (AID 1935); format: functional; conditions: Homo sapiens;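 also: BJ fibroblasts immortalized with TERT plus LT and ST oncogenes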
[15] = molecular target: Luciferin 4-monooxygenase (Photinus pyralis, UniProt P08659); experiment: firefly luciferase enzyme inhibitors, dose response, biochemical, luminescence (AID 1891)
[16] = HepG2 cell cytotoxicity, dose response, cytotoxicity control for Shn3 inhibitor project, CellTiter-Glo, cherry-picked (AID 624134); format: functional, cell-based
[17] = tested on: HEK293; experiment: cells; conditions: Homo sapiens
[18] = control 3'UTR Renilla luciferase suppression, dose response, counter-screen for Shn3 inhibitor project, cell-based, Clone20-Shn3RL, cherry-picked (AID 624133); format: functional
[19] = Luminescence Cell-Based Dose Confirmation HTS to Identify Inhibitors of Platelet Dense Granule Release. [Related pubchem assays: 1663 (Primary HTS), 1678 (Summary of Project)]; format: functional
[20] = molecular target: Heat shock protein HSP 90-alpha (Homo sapiens, UniProt P07900); format: functional, organism-based
[21] = tested on: HEK293; experiment: cells; conditions: Homo sapiens; remark: listed apart in the source
[22] = growth suppression of beta-catenin-knockout colon cells, dose response, cell-based, HCT116, human colon tumor (AID 1045); format: functional;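 also: HCT116 colon tumor cells with beta catenin knocked out; cells exposed to compound for 60 hours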
[23] = HEp-2 cell cytotoxicity, dose response, cytotoxicity control for RSV inhibitor project, HTS (AID 2410); format: functional; conditions: human respiratory syncytial virus
[24] = Shn3 3'UTR reporter inhibitors, dose response, cell-based, Clone20 osteoblasts, firefly luciferase, cherry-picked (AID 624132); format: functional;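 also: firefly luciferase luminescence from reporter carrying the Shn3 3'UTR in osteoblasts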
[25] = molecular target: T1, Voltage-gated N-type calcium channel alpha-1B subunit/Amyloid beta A4 precursor protein-binding family A member 1 (Homo sapiens, UniProt Q00975+Q02410); format: protein assay
[26] = molecular target: T1, Voltage-gated N-type calcium channel alpha-1B subunit/Amyloid beta A4 precursor protein-binding family A member 1; format: protein assay; remark: listed apart in the source
[27] = growth suppression of PTEN-null colon cells, dose response, cell-based, HCT116 PTEN knockout (AID 1047); format: functional;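 also: HCT116 colon tumor cells with PTEN knocked out; cells exposed to compound for 60 hours before readout; potency for loss of cell viability measured by luminescence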
[28] = molecular target: T2, Short transient receptor potential channel 4 (Mus musculus, UniProt Q9QUQ5); experiment: mouse TRPC4 channel inhibitors, dose response, cell-based, HEK293 TRPC4/mu-opioid, Fluo-4 calcium (AID 434942); format: functional;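 also: potency of inhibitors blocking the TRPC4 calcium response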
T2 sequence (Q9QUQ5 whole entry): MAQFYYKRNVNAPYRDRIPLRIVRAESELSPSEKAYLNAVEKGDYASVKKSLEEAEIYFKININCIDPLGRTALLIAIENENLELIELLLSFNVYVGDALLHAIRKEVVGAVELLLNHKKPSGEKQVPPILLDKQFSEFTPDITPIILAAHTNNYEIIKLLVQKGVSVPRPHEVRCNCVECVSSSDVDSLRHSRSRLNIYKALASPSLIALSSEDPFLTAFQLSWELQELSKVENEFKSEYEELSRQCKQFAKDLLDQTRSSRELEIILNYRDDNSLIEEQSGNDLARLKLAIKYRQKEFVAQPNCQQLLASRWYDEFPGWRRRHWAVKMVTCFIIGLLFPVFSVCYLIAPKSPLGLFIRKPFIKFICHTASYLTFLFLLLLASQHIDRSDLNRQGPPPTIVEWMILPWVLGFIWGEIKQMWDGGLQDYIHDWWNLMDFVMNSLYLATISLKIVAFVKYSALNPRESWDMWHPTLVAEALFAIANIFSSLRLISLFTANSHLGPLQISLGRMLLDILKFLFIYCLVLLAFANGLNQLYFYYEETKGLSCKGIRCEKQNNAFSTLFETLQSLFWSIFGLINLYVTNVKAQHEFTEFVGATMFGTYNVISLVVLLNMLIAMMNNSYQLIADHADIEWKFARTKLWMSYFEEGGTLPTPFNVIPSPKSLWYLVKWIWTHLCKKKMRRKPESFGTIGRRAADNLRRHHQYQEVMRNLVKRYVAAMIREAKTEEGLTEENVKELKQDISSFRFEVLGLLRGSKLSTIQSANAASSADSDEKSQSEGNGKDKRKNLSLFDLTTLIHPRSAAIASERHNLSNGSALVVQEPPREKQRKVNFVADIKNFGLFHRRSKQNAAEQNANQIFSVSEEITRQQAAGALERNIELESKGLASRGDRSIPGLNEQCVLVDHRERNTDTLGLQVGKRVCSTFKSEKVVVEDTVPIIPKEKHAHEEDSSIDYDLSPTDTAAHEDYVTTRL

[29] = Luminescence Cell-Based Dose Retest to Confirm Inhibitors of Cancer Stem Cells. [Related pubchem assays (depositor defined):AID2717, AID2721]; format: functional; conditions: Homo sapiens
[30] = molecular target: T3, Perilipin-1/ABHD5 (Homo sapiens, UniProt O60240+Q8WTS1); experiment: Luminescence-based biochemical high throughput dose response assay for inhibitors of the interaction of the lipase co-activator protein, abhydrolase domain containing 5 (ABHD5) with perilipin-1 (PLIN1) (2K validation set). [Related pubchem assays (depositor defined):AID493027, AID493057]
T3 sequence (Q8WTS1 whole entry): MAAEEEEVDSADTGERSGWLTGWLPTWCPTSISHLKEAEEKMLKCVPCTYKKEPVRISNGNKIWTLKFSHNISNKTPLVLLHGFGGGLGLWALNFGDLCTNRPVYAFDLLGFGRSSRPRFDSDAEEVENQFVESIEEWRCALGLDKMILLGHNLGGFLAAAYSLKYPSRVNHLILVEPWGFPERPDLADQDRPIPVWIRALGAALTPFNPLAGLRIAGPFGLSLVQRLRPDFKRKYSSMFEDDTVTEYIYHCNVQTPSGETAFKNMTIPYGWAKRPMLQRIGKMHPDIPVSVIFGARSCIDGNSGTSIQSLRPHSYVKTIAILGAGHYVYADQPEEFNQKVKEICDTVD
T3 sequence (O60240 whole entry): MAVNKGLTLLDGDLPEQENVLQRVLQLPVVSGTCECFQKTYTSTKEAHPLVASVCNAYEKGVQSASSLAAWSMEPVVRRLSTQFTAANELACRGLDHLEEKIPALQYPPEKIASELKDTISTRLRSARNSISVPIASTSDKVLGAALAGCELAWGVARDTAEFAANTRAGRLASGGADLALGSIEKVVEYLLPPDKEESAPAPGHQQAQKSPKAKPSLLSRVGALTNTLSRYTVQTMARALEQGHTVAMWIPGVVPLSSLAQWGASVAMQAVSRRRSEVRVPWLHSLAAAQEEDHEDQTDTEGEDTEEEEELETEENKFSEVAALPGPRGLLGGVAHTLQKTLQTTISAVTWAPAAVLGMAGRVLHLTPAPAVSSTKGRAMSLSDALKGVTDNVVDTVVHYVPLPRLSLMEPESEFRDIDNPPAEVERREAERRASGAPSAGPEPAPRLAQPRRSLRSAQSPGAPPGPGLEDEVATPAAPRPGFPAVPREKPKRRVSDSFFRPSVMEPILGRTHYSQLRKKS

[31] = molecular target: T4, 1-acylglycerol-3-phosphate O-acyltransferase ABHD5/Perilipin-5 (Homo sapiens, UniProt Q00G26+Q8WTS1); experiment: Luminescence-based biochemical high throughput dose response assay for inhibitors of the interaction of the lipase co-activator protein, abhydrolase domain containing 5 (ABHD5) with perilipin-5 (MLDP; PLIN5) (2K validation set). [Related pubchem assays (depositor defined):AID493035, AID493241]
T4 sequence (Q00G26 whole entry): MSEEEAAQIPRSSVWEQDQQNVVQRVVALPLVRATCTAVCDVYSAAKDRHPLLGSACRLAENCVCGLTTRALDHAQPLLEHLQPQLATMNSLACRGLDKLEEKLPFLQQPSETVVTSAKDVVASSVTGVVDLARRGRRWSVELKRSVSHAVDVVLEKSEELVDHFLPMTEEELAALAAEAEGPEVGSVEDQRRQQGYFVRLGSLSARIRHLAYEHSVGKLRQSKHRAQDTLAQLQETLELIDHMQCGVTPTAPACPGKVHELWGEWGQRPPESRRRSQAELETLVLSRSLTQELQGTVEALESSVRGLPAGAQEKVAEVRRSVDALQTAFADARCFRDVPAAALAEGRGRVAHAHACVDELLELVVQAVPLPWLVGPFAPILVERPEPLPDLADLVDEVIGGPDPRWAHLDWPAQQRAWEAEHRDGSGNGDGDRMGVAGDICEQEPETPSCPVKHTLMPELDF
T4 sequence (Q8WTS1 whole entry): T3 sequence (Q8WTS1 whole entry)

[32] = molecular target: T5, Protein skinhead-1 (Caenorhabditis elegans, UniProt P34707); format: functional
T5 sequence (P34707 whole entry): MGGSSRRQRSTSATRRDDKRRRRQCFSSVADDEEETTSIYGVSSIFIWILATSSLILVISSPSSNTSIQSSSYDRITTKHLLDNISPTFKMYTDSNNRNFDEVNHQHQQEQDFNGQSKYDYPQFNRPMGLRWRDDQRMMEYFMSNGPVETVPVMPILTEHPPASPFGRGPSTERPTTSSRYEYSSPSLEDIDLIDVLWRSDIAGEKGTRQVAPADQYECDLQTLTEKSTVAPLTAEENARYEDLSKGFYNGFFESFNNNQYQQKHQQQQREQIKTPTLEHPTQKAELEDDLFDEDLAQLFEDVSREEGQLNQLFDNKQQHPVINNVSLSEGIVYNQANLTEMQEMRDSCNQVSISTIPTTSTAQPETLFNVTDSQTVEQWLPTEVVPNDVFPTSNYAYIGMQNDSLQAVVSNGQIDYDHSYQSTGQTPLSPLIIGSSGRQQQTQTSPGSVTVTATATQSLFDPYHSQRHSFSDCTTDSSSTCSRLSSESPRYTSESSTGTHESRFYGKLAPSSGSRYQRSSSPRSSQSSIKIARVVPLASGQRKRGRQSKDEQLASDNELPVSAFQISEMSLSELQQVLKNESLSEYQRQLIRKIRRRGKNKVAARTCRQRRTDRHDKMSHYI

T1 sequence (Q00975 whole entry): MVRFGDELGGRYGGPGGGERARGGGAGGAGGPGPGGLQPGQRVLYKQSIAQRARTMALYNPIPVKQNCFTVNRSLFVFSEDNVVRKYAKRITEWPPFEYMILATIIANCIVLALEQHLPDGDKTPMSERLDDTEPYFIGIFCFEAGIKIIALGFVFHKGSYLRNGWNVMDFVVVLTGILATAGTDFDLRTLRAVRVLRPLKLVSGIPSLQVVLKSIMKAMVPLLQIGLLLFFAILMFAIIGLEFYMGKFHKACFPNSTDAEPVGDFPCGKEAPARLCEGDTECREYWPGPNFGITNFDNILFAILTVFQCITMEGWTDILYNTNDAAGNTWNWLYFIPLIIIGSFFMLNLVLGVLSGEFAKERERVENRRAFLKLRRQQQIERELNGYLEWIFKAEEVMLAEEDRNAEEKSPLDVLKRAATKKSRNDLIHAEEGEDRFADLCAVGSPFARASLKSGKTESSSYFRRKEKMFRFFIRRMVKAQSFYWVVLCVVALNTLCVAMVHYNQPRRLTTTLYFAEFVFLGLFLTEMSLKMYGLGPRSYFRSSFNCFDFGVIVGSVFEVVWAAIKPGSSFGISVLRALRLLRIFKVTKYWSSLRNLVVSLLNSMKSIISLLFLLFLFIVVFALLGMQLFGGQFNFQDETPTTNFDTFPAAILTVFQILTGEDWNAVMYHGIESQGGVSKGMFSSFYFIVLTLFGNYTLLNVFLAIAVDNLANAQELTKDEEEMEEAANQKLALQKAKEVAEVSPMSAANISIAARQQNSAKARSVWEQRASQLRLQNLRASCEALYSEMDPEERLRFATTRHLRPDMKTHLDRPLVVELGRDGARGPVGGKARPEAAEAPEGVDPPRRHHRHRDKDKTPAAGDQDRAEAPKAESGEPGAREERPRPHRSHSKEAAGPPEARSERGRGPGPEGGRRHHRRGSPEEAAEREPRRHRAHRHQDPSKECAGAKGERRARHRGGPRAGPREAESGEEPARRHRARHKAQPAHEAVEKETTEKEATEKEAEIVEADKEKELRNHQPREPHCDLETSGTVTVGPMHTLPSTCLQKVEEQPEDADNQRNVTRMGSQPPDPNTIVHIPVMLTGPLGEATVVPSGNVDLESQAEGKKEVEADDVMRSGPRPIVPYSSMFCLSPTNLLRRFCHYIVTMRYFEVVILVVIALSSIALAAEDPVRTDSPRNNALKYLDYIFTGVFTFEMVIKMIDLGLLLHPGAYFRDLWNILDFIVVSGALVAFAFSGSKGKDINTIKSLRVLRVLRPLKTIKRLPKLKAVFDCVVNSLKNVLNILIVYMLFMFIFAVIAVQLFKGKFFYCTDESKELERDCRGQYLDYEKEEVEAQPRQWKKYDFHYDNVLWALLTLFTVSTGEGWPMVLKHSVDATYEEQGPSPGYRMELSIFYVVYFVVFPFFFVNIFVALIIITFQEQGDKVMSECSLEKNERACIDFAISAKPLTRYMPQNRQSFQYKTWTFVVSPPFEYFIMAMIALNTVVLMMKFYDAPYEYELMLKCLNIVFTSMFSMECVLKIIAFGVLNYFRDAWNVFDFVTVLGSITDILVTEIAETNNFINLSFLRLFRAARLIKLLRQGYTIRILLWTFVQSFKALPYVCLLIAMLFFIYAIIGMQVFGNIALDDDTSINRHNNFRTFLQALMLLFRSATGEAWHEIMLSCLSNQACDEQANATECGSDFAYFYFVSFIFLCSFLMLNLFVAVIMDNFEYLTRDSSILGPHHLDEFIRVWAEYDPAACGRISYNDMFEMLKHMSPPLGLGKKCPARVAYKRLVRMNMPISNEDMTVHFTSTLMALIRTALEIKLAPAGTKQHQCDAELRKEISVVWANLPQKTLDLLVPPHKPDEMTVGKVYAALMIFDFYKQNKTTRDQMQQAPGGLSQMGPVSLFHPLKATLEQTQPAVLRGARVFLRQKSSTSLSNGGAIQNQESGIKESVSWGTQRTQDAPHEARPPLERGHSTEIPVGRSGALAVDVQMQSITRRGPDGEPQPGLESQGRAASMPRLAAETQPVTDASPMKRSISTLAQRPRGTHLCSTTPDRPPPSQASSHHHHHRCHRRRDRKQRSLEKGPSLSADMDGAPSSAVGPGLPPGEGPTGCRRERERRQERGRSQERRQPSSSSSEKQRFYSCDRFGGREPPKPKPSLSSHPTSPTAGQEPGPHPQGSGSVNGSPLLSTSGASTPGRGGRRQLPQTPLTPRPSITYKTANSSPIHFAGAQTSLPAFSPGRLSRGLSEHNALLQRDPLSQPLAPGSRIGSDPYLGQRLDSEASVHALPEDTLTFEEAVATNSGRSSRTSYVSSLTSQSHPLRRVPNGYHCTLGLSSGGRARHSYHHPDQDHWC
T1 sequence (Q02410 whole entry): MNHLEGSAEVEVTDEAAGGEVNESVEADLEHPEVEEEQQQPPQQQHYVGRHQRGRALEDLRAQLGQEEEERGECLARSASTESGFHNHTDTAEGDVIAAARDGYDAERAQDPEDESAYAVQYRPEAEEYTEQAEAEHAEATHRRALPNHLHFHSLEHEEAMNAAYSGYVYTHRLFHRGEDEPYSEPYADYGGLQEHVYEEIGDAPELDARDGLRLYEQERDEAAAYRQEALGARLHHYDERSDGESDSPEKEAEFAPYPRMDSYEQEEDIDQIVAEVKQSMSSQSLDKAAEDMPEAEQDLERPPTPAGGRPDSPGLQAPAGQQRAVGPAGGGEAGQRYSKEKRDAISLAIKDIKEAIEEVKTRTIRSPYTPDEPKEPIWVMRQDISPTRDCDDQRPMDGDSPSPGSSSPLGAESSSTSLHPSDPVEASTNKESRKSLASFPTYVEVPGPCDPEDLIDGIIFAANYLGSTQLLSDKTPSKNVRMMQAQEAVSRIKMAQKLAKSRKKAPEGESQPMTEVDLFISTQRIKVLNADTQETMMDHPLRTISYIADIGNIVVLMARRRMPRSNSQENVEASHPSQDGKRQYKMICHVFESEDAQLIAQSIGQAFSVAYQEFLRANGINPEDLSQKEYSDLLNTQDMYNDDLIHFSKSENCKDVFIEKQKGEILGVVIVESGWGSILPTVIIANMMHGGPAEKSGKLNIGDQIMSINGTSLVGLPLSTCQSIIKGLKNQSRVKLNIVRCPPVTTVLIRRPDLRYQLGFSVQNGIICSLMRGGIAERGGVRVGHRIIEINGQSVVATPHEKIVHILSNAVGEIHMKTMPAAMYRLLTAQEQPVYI
Sequence of Beta-2 adrenergic receptor (P07550 whole entry): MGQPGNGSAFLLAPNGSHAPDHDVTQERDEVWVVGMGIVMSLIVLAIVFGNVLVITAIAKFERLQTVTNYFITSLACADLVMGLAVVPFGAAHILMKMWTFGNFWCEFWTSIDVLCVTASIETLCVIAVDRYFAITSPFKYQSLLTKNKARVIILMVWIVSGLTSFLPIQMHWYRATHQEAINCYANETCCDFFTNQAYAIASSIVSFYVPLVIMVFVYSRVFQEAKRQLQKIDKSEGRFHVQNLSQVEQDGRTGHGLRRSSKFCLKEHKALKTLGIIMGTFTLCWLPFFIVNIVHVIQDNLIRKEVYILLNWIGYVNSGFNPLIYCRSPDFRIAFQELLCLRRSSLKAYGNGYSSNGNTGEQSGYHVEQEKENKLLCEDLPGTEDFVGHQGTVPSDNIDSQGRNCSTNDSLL
Sequence of Glucose-6-phosphate 1-dehydrogenase (P11413 whole entry): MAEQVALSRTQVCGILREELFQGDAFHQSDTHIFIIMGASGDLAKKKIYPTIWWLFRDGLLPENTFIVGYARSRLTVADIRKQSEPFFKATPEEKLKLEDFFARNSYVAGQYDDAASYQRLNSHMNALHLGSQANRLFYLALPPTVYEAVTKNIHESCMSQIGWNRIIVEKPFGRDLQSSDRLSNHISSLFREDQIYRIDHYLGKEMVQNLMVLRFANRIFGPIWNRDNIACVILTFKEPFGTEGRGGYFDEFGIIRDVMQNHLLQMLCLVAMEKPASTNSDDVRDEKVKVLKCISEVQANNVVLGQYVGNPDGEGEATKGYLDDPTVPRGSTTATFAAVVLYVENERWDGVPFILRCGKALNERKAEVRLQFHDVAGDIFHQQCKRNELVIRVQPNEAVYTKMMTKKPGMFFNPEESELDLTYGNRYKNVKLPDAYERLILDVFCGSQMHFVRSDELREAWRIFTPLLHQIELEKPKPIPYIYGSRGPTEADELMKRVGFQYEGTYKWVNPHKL
Sequence of Luciferin 4-monooxygenase (P08659 whole entry): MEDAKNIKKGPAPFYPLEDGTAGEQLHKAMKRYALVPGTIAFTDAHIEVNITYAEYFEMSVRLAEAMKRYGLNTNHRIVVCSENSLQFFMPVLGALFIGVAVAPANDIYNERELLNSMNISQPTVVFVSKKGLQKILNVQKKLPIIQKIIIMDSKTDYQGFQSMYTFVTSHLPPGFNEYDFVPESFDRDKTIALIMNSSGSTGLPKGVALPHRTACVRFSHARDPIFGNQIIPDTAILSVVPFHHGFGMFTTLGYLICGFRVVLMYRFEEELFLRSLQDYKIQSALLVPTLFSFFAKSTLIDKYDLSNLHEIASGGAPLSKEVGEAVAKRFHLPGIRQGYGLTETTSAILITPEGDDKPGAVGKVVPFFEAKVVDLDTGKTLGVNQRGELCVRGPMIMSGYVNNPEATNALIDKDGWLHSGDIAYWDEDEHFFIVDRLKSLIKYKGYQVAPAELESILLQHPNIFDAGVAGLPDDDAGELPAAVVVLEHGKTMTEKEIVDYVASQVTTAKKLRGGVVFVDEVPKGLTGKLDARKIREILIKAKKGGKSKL

O=C(NCCC1=CCCCC1)c1ccc(-n2cncn2)cc1
AC50 [1]: > 350 µM (inactive)

Cc1cc(C)c2c(N)c(-c3nnc(SCc4ccc(Cl)cc4)n3C)sc2n1
EC50 [2]: 0.252 µM (active)

O=C(c1ccc(Cl)cc1)C(CN1CCCC1)c1ccccc1 (configuration not stated)
CC50 [3]: 23 µM (active) | IC50 [4]: > 25 µM (active) | EC50 [5]: > 120 µM (not active) | EC50 [6]: > 120 µM (not active) | EC50 [7]: > 120 µM (not active)

CCc1nnc(NC(=O)c2ccc(Cl)nc2)s1
IC50 [8]: > 80 µM (inactive)

Cc1ccc(Nc2ncnc3ccccc23)cc1
AC50 [1]: 154 µM (active)

CC(C)c1ccc(NC(=O)[C@H](Cc2c[nH]c3ccccc23)NC(=O)[C@@H]2Cc3ccccc3CN2)cc1
EC50 [9]: 20.1 µM (active) | EC50 [10]: > 120 µM (not active) | CC50 [3]: 23.5 µM (active) | EC50 [11]: 119 µM (active) | IC50 [4]: 5.06 µM (active) | EC50 [12]: 70.9 µM (active) | EC50 [13]: > 150 µM (not active) | EC50 [14]: > 150 µM (not active)

Cc1ccc(NN2C(=O)C=C(c3ccc(Cl)cc3)C2=O)cc1
EC50 [15]: > 112 µM (not active) | AC50 [16]: 19.8 µM (active) | EC50 [17]: > 59.6 µM (inactive) | AC50 [18]: 12.6 µM (active) | EC50 [19]: 9.18 µM (active) | AC50 [20]: < 0.195 µM (active) | EC50 [21]: > 59.6 µM (inactive) | EC50 [22]: 24.1 µM (active) | CC50 [23]: 10.8 µM (active) | AC50 [24]: 6.53 µM (active) | IC50 [25]: > 50 µM (inactive) | IC50 [26]: 11 µM (active) | EC50 [27]: 19.9 µM (active)

Cn1cccc1C(=O)C(=O)Nc1ccc(F)c(F)c1
AC50 [1]: 72.6 µM (active)

COCCn1c(SCC(=O)Nc2ccccc2OC)nc2c3ccccc3nc-2c1O
EC50 [17]: > 59.6 µM (inactive) | EC50 [28]: 3.76 µM (active) | EC50 [21]: > 59.6 µM (inactive)

O=C(/C=C/c1ccccc1)/C=C/c1ccccc1
AC50 [29]: 1.42 µM (active) | CC50 [3]: 19.1 µM (active) | IC50 [4]: > 25 µM (active) | EC50 [22]: 0.953 µM (active) | IC50 [30]: 1.52 µM (active) | IC50 [31]: 1.48 µM (active) | IC50 [32]: 11.6 µM (active) | EC50 [27]: 1.22 µM (active)
